# Experiments:
# Blastomyces dermatitidis = test: MIC, standard agar-dilution assay; type: cell-based
# Cryptococcus neoformans = test: MIC, standard agar-dilution assay; type: cell-based
# Proteus morganii PR15 = test: MIC, standard agar-dilution assay; type: cell-based; conditions: Morganella morganii
# [1] = tested on: Pseudomonas aeruginosa X239; test: MIC, standard agar-dilution assay; type: cell-based
# Serratia marcescens SE3 = test: MIC, standard agar-dilution assay; type: cell-based
# [2] = tested on: Staphylococcus aureus 3074; test: MIC, standard agar-dilution assay; type: cell-based
# [3] = tested on: Streptococcus faecalis X66; test: MIC, standard agar-dilution assay; type: cell-based; conditions: Enterococcus faecalis
# Histoplasma capsulatum = test: microbe, parasite or virus in culture; type: cell-based
# Erwinia amylovora = test: MIC, standard agar-dilution assay; type: cell-based
# Ceratocystis ulmi = test: MIC, standard agar-dilution assay; type: cell-based
# [4] = tested on: Pseudomonas solanacearum X185; test: microbe, parasite or virus in culture; type: cell-based; conditions: Ralstonia solanacearum
# C. albicans = test: dermal C. albicans infection in rabbits, topical treatment; type: in vivo; conditions: ten days treatment with 1% solution in propylene glycol
# Escherichia coli EC14 = test: MIC, standard agar-dilution assay; type: cell-based
# [5] = tested on: Trichophyton mentagrophytes 27; test: MIC, standard agar-dilution assay; type: cell-based
# Candida albicans = test: standard disc-diffusion assay; type: cell-based
# Aspergillus flavus E = test: MIC, standard agar-dilution assay; type: cell-based
# [6] = toxicity (LD50) in mice, intraperitoneal; conditions: mouse, in vivo, ip, intraperitoneally
# [7] = tested on: Citrobacter freundii MX CF17; test: MIC, standard agar-dilution assay; type: cell-based; conditions: MXCF17
# [8] = tested on: Staphylococcus aureus 3055; test: MIC, standard agar-dilution assay; type: cell-based
# [9] = tested on: Bordetella bronchiseptica 16; test: MIC, standard agar-dilution assay; type: cell-based
# Salmonella typhosa SA12 = test: MIC, standard agar-dilution assay; type: cell-based; conditions: Salmonella enterica
# Candida tropicalis Z17 = test: MIC, standard agar-dilution assay; type: cell-based
# [10] = tested on: Klebsiella pneumoniae KL14; test: MIC, standard agar-dilution assay; type: cell-based
# Salmonella typhimurium = test: MIC, standard agar-dilution assay; type: cell-based; conditions: Salmonella enterica
structure (smiles),measurement,setting,value
COC1c2cc(Cl)c(O)cc2ON2C(=O)C3NC(=O)C12SS3 (stereo not drawn),MIC,Blastomyces dermatitidis,10 µg/mL
same,MIC,Cryptococcus neoformans,< 0.156 µg/mL
same,MIC,Proteus morganii PR15,> 100 µg/mL
same,MIC,[1],> 100 µg/mL
same,MIC,Serratia marcescens SE3,> 100 µg/mL
same,MIC,[2],0.78 µg/mL
same,MIC,[3],> 100 µg/mL
same,MIC,Histoplasma capsulatum,10 µg/mL
same,MIC,Erwinia amylovora,6.25 µg/mL
same,MIC,Ceratocystis ulmi,12.5 µg/mL
same,MIC,[4],> 100 µg/mL
same,lesions caused by a dermal C. albicans infection,C. albicans,reduced in severity and size
same,MIC,Escherichia coli EC14,> 100 µg/mL
same,MIC,[5],25 µg/mL
same,amount inhibiting Candida albicans,Candida albicans,less than 0.312 mcg per disc
same,MIC,Aspergillus flavus E,25 µg/mL
same,LD50,[6],106 mg/kg
same,MIC,[7],> 100 µg/mL
same,MIC,[8],3.12 µg/mL
same,MIC,[9],50 µg/mL
same,MIC,Salmonella typhosa SA12,> 100 µg/mL
same,MIC,Candida tropicalis Z17,> 100 µg/mL
same,MIC,[10],> 100 µg/mL
same,MIC,Salmonella typhimurium,> 100 µg/mL

# From patent US3991052A (priority 1975, dated 1976)
